One data set deals with A375 (melanoma). As to the kind of experiment: SRB cytotoxicity assay, A375. Type of data set: cell-based, human. Conditions: read-out: Cytotoxicity (EC50) A375. On the procedure:
(§1) Sulforhodamine (SRB) assays were performed to evaluate the cytotoxicity of the compounds. First, the cytotoxicity of the different rhodamines was determined; the results of these assays are compiled in Table 1 and Table 2 and depicted in Figure 1.
(§2) Experimental equipment: as previously described biological assays were performed as previously reported employing cell lines obtained from the Department of Oncology [Martin-Luther-University Halle Wittenberg; they were bought from ATCC [2, 4, 7]]. Rhodamine 101 B, as well as asiatic acid, were obtained from local vendors and used as received.
(§3) For the SRB assay and staining experiments: as previously described.
For orientation: The SRB assay estimates cell density from bound dye.

The test system of data set [1] is HT29 (colorectal carcinoma). Nature of the data set: SRB cytotoxicity assay, HT29. It counts as cell-based, human. Conditions: read-out: Cytotoxicity (EC50) HT29. On the procedure:
as §1, §2, §3

The test system of data set [2] is MCF7 (breast adenocarcinoma). As to the kind of experiment: SRB cytotoxicity assay, MCF7. Type of data set: cell-based, human. As to conditions: read-out: Cytotoxicity (EC50) MCF7. The procedure:
as §1, §2, §3

Data set [3] deals with A2780 (ovarian carcinoma). Nature of the data set: SRB cytotoxicity assay, A2780. Type of data set: cell-based, human. As to conditions: read-out: Cytotoxicity (EC50) A2780. The procedure: as §1, §2, §3
In data set [4] the test system is HeLa (cervical adenocarcinoma). Nature of the data set: SRB cytotoxicity assay, HeLa. It counts as cell-based, human. As to conditions: read-out: Cytotoxicity (EC50) HeLa. On the procedure: as §1, §2, §3
The nature of data set [5]: SRB cytotoxicity assay, NIH 3T3. It counts as cell-based, murine. As to conditions: mouse, NIH 3T3 non-malignant fibroblasts, Table 1, 72 h of treatment, cut-off 30 μM. The procedure: as §1, §2, §3
For data set [6], the system named is human tumor cell lines and non-malignant fibroblasts (NIH 3T3). As to the kind of experiment: SRB cytotoxicity assay, several cell lines stated together. Type of data set: cell-based. As to conditions: all human tumor cell lines and non-malignant fibroblasts (NIH 3T3), limits of the assay. The procedure: as §1, §2, §3
In data set [7] the test system is NIH 3T3 (non-malignant fibroblasts, murine). Nature of the data set: SRB cytotoxicity assay, NIH 3T3. Type of data set: cell-based. Conditions: Table 1, 72 h of treatment, cut-off 30 μM. The procedure:
as §1, §2, §3

[8] abbreviates: Table 1, SRB assay, 72 h of treatment, cut-off 30 μM.

Structures can show the parent of a compound that is named as a salt. Where two headings read alike, the source gives them in different places.

A word on the melting point: it is the temperature of the solid-liquid transition. For `CC(=O)OC[C@@]1(C)C2CC[C@]3(C)[C@H](CC=C4[C@@H]5[C@@H](C)[C@H](C)CC[C@]5(C(=O)N5CCCN(C(=O)c6ccccc6-c6c7ccc(=[N+](C)C)cc-7oc7cc(N(C)C)ccc67)CCC5)CC[C@]43C)[C@@]2(C)C[C@@H](OC(C)=O)[C@@H]1OC(C)=O` (stereo partly drawn) (as salt: chloride) [compound 16, (2α,3β,4α)-9-[2-[{4-(2α,3β,23-Tris(Acetyloxy)-urs-12-en-28-oyl)-1,5-Diazocan-1-Yl]Carbonyl}Phenyl]-3,6-Bis(Dimethylamino)-Xanthylium Chloride], the melting point was 224 to 226 °C.
Compound `CCN(CC)c1ccc2c(-c3ccccc3C(=O)N3CCCN(C(=O)[C@]45CC[C@@H](C)[C@H](C)[C@H]4C4=CC[C@@H]6[C@@]7(C)C[C@@H](OC(C)=O)[C@H](OC(C)=O)[C@@](C)(COC(C)=O)C7CC[C@@]6(C)[C@]4(C)CC5)CCC3)c3ccc(=[N+](CC)CC)cc-3oc2c1` (stereo partly drawn) (as salt: chloride) [compound 17, (2α,3β,4α)-9-[2-[{4-(2α,3β,23-Tris(Acetyloxy)-urs-12-en-28-oyl)-1,5-Diazocan-1-Yl]Carbonyl}Phenyl]-3,6-Bis(Diethylamino)-Xanthylium Chloride] returned a melting point of 222 to 227 °C.
Consider `CCCN(CCC)c1ccc2c(-c3ccccc3C(=O)N3CCCN(C(=O)[C@]45CC[C@@H](C)[C@H](C)[C@H]4C4=CC[C@@H]6[C@@]7(C)C[C@@H](OC(C)=O)[C@H](OC(C)=O)[C@@](C)(COC(C)=O)C7CC[C@@]6(C)[C@]4(C)CC5)CCC3)c3ccc(=[N+](CCC)CCC)cc-3oc2c1` (stereo partly drawn) (as salt: chloride) [compound 18, (2α,3β,4α)-9-[2-[{4-(2α,3β,23-Tris(Acetyloxy)-urs-12-en-28-oyl)-1,5-Diazocan-1-Yl]Carbonyl}Phenyl]-3,6-Bis(Dipropylamino)-Xanthylium Chloride], for which the melting point lay within 207 to 209 °C.
The same measure, in the same setting: with `CCCCN(CCCC)c1ccc2c(-c3ccccc3C(=O)N3CCCN(C(=O)[C@]45CC[C@@H](C)[C@H](C)[C@H]4C4=CC[C@@H]6[C@@]7(C)C[C@@H](OC(C)=O)[C@H](OC(C)=O)[C@@](C)(COC(C)=O)C7CC[C@@]6(C)[C@]4(C)CC5)CCC3)c3ccc(=[N+](CCCC)CCCC)cc-3oc2c1` (stereo partly drawn) (as salt: chloride) [compound 19, (2α,3β,4α)-9-[2-[{4-(2α,3β,23-Tris(Acetyloxy)-urs-12-en-28-oyl)-1,5-Diazocan-1-Yl]Carbonyl}Phenyl]-3,6-Bis(Dibutylamino)-Xanthylium Chloride] the figure was 215 to 218 °C.
The term EC50 denotes the concentration at which the effect is half-maximal. For the compound `CN(C)c1ccc2c(-c3ccccc3C(=O)O)c3ccc(=[N+](C)C)cc-3oc2c1` [Rh1, reference compound], the EC50 was > 30 µM in the data set with A375 (melanoma) (Homo sapiens, A-375, 72 h); > 30 µM in [1] (Homo sapiens, HT-29, 72 h); > 30 µM in [2] (Homo sapiens, MCF7, 72 h); > 30 µM in data set [3] (Homo sapiens, A2780, 72 h); > 30 µM in [4] (Homo sapiens, HeLa, 72 h); > 30 µM in [6] (NIH3T3). Further, in [5], the EC50 at 72 h is > 30 µM.
Consider rhodamine B [Rh2, reference compound], for which the EC50 (in the data set with A375 (melanoma) (setting [8]); in [1] (setting [8]); in data set [2] (setting [8]); in data set [3] (setting [8]); in [4] (setting [8]); in data set [7]) was > 30 µM each time. Also, in data set [6], the EC50 was > 30 µM.

Values taken from article PMC10489938, “Developing an Amide-Spacered Triterpenoid Rhodamine Hybrid of Nano-Molar Cytotoxicity Combined with Excellent Tumor Cell/Non-Tumor Cell Selectivity” (Molecules, 2023).
